Earlier results on 1 substance are cited in patent publication US9662359B2, “Compositions and methods for treating depression” (Alexander Vuckovic, M.D., LLC, priority 2010, dated 2017).

For the data set the following is noted: oral SAMe.

As for S-Adenosyl methionine [SAMe], the half-life result is “about 100 minutes”.
